The text below walks through data of patent US20180147161A1, “MULTIDRUG BRITTLE MATRIX COMPOSITIONS” (BOARD OF REGENTS, THE UNIVERSITY OF TEXAS SYSTEM, priority 2015, published 2018).

Structures are written as SMILES. Read-outs that look alike come from different tables or passages of the source.

The conditions of data set [1]: cited from earlier work.
Data set [2] in a line: Particle size distribution by laser diffraction. The settings on record: for Particle size D10 / Particle size D50 / Particle size D90: laser diffraction. The class given is physicochemical. On the procedure: Measurement of particle size distributions of budesonide, tiotropium bromide and formoterol fumarate before and after jet milling were measured by laser diffraction (HELOS, Sympatec GmbH, Clausthal-Zellerfelg, Germany). A small amount of formoterol fumarate and Tiotropium bromide were separately dispersed in 10 mL 0.01% tween 80 mineral oil and a small amount of budesonide was dispersed in 10 mL 0.01% tween 80 in deionized water. The samples were sonicated for 5 minutes and diluted with enough solvent to produce light obscuration in the range of 15-20%. The sizes reported are average values of at least 3 measurements. The results are presented as D(x) and span, where X is the cumulative percentile of particles under the referred size (e.g. D(50) corresponds to the median diameter of the particles). Span is a measurement of particle size distribution calculated as [(D(90)−D(10)]/D(50).

A short description of data set [3]: BET specific surface area of triple therapy materials. It counts as physicochemical. The note with it: for SSA: after jet milling. On the procedure:
Powder porosity was determined through the measurement of the specific surface area (SSA) using a Monosorb MS-22 rapid surface area analyzer (Quantachrome Instruments, Boynton Beach, Fla.). The instrument uses a modified BET equation for SSA determination. Samples were degassed in a Thermoflow™ Degasser for at least 2 hours at 25° C. using 30% nitrogen in helium as the […].

Data set [4] in a line: Particle size distribution by laser diffraction. It counts as physicochemical. The note with it: [(D(90)−D(10)]/D(50)).

On to `OCc1cc(C(O)CNCCCCCCOCCCCc2ccccc2)ccc1O` (centres unmarked) [salmeterol xinafoate], for which, in data set [1], the Solubility in water result is “sparingly soluble”.
Regarding `C[N+]1(C)[C@@H]2C[C@@H](OC(=O)C(O)(c3cccs3)c3cccs3)C[C@H]1[C@@H]1O[C@@H]12` [Tiotropium bromide, tiotropium bromide], in data set [2] ([(D(90)−D(10)]/D(50))), the Span is on record as 2.14. For the same compound, in data set [2] (after jet milling), the D50 was found to be 4.65±0.04 μm and the Span was found to be 2.0. Further, in data set [2], the “Particle size D10” value worked out at 1.10 ± 0.01 μm, the “Particle size D50” value is on record as 5.14 ± 0.03 μm and the “Particle size D90” value came to 12.11 ± 0.07 μm. Moreover, the “Particle size D50” value in data set [2] (listed as tiotropium) worked out at 5.14±0.03 μm. Also, in data set [3], the “SSA ± SD” value came out at 2.08 ± 0.13 m^2/g and the SSA is 2.86±0.11 m^2/g. Besides, the “SSA ± SD” value in data set [3] (listed as tiotropium) is given as 2.08±0.13 m^2/g. Besides, the Span in data set [4] amounted to 2.14.
With `C[C@@H]1C[C@H]2[C@@H]3CCC4=CC(=O)C=C[C@]4(C)[C@@]3(Cl)[C@@H](O)C[C@]2(C)[C@@]1(OC(=O)c1ccco1)C(=O)CCl` [mometasone furoate], in data set [1], the Solubility in water result was “practically insoluble”.
In turn, `COc1ccc(C[C@@H](C)NC[C@H](O)c2ccc(O)c(NC=O)c2)cc1.COc1ccc(C[C@@H](C)NC[C@H](O)c2ccc(O)c(NC=O)c2)cc1.O=C(O)/C=C/C(=O)O` [Formoterol furmarate, formoterol fumarate] yielded a Span in data set [2] ([(D(90)−D(10)]/D(50))) of 7.75. In data set [2] (after jet milling), this compound yielded a D50 of 4.51±0.02 μm and a Span of 1.96. In data set [2], the “Particle size D10” value amounted to 1.16 ± 0.05 μm, the “Particle size D50” value was determined as 6.27 ± 0.97 μm and the “Particle size D90” value came to 49.78 ± 7.84 μm. For the same compound, the “Particle size D50” value in data set [2] (listed as Formoterol) turned out to be 6.27±0.97 μm. In addition, in data set [3], the “SSA ± SD” value worked out at 2.97 ± 0.05 m^2/g and the SSA was found to be 5.08±0.26 m^2/g. Moreover, in data set [3] (listed as formoterol), the “SSA ± SD” value amounted to 2.97±0.05 m^2/g. In data set [4], this compound returned a Span of 7.75.
As for `C[N+]1(C)[C@@H]2C[C@@H](OC(=O)C(O)(c3cccs3)c3cccs3)C[C@H]1[C@@H]1O[C@@H]12` [Jet milled tiotropium bromide, tiotropium bromide], the Span in data set [2] ([(D(90)−D(10)]/D(50))) is 2.0. In data set [2], the “Particle size D10” value is reported as 1.09 ± 0.79 μm, the “Particle size D50” value is on record as 4.65 ± 0.04 μm and the “Particle size D90” value is listed as 10.39 ± 0.04 μm. The “SSA ± SD” value in data set [3] was determined as 2.86 ± 0.11 m^2/g.
Consider `OC[C@@H](O)[C@@H](O)[C@H](O)[C@H](O)CO` [Mannitol, D-(+)-Mannitol], for which the Span in data set [2] ([(D(90)−D(10)]/D(50))) is recorded as 1.8; in data set [4], 1.80. Moreover, in data set [2], the “Particle size D10” value is listed as 6.88 ± 0.07 μm. In addition, the “Particle size D50” value in data set [2] turned out to be 52.70 ± 0.59 μm; in data set [2] (listed as mannitol), 52.70±0.59 μm. The “Particle size D90” value in data set [2] is recorded as 101.91 ± 0.41 μm. In addition, the “SSA ± SD” value in data set [3] turned out to be 0.22 ± 0.001 m^2/g.
`COc1ccc(C[C@@H](C)NC[C@H](O)c2ccc(O)c(NC=O)c2)cc1.COc1ccc(C[C@@H](C)NC[C@H](O)c2ccc(O)c(NC=O)c2)cc1.O=C(O)/C=C/C(=O)O` [jet milled formoterol fumarate, formoterol fumarate] came in with a Span in data set [2] ([(D(90)−D(10)]/D(50))) of 1.96. In data set [2], the “Particle size D10” value amounted to 1.45 ± 1.01 μm, the “Particle size D50” value was 4.51 ± 0.02 μm and the “Particle size D90” value turned out to be 10.29 ± 0.07 μm. For the same compound, the “SSA ± SD” value in data set [3] is listed as 5.08 ± 0.26 m^2/g.
`O.OC[C@H]1O[C@@H](O[C@H]2[C@H](O)[C@@H](O)C(O)O[C@@H]2CO)[C@H](O)[C@@H](O)[C@H]1O` (some centres unmarked) [Lactose monohydrate, lactose monohydrate] registered a Span in data set [2] ([(D(90)−D(10)]/D(50))) of 2.43. Further, the “Particle size D10” value in data set [2] was 4.13 ± 0.11 μm. Also, the “Particle size D90” value in data set [2] came out at 100.9 ± 0.27 μm. The “Particle size D50” value in data set [2] (listed as lactose, monohydrate) was 39.78±1.32 μm; in data set [2] (monohydrate), 39.78 ± 1.32 μm. The “SSA ± SD” value in data set [3] was 0.34 ± 0.03 m^2/g.
